Reference: patent publication US4833241A, “Anthracycline compound” (Kirin Beer Kabushiki Kaisha, priority 1986, dated 1989)
Where two headings read alike, the source gives them in different places.

Key:
P388 leukemia = test: Antitumor activity in CDF1 mice with intraperitoneally transplanted P388 leukemia, i.v. administration, 30-day survival; type: in vivo; conditions: for Increase in life span T/C (%): days 1 and 5, saline control = 100%; for ED (T/C 130%): Mus musculus, 720 h
in vivo = conditions: mouse, iv
[1] = Stability of M-R20X3 during measurements (1) through (4); type: physicochemical

With COc1cccc2c1C(=O)c1c(O)c3c(c(O)c1C2=O)C[C@@](O)(C(=O)CO)C[C@@H]3O[C@H]1C[C@H](N)[C@H](O)[C@H](C)O1 [Adriamycin, reference compound] as the molecule, how does the “Increase in life span T/C (%)” value (P388 leukemia; 1 mg/kg/day i.v.) read?
Its value is 103%.

What about the “Increase in life span T/C (%)” value (P388 leukemia; 2 mg/kg/day i.v.) of the same molecule?
The value was 119%.

And the “Increase in life span T/C (%)” value (P388 leukemia; 4 mg/kg/day i.v.)?
Its value is 133%.

And the “Increase in life span T/C (%)” value (P388 leukemia; 8 mg/kg/day i.v.)?
The value was 165%.

What about the “Increase in life span T/C (%)” value (P388 leukemia; 12 mg/kg/day i.v.) of the same molecule?
Its value is 244%.

Which “Solubility (soluble in)” value (acidic water, basic water, methanol, ethanol, propanol, acetone, ethyl acetate, and chloroform) does the source give for CC[C@@]1(O)C[C@H](O[C@H]2C[C@H](N3CCOCC3)[C@H](O)[C@H](C)O2)c2c(O)c3c(c(O)c2C1O)C(=O)c1cccc(O)c1C3=O (some centres unmarked) [M-R20X2, 3'-deamino-3'-(4-morpholinyl)-13-deoxo-10-hydroxycarminomycin] here?
Its value is “Soluble”.

What about the “Solubility (insoluble in)” value (water, hexane, cyclohexane, diethyl ether, and petroleum ether) of the same molecule?
The value was “Insoluble”.

What about the LD50 (in vivo) of the same molecule?
Its LD50 is 3.55 mg/kg.

And the ED (T/C 130%) (P388 leukemia; P388, iv, read-out: Dose for T/C = 130% (mg/kg/day))?
The ED (T/C 130%) was 0.43 mg/kg/day.

And the Therapeutic index (P388 leukemia; mouse, in vivo, iv)?
The Therapeutic index was 4.7.

Which results are given for CC[C@@]1(O)C[C@H](O[C@H]2C[C@H](N3CCOCC3)[C@H](O)[C@H](C)O2)c2c(O)c3c(c(O)c2[C@H]1C(=O)O)C(=O)c1cccc(O)c1C3=O [M-R20X3, 3'-deamino-3'-(4-morpholinyl)-13-deoxo-10-hydroxycarbonylcarminomycin]?
Stability (lability) [1]: extremely labile; Decomposition after completion of the measurements ([1]; measurements (1) through (4) carried out quickly): no decomposition was observed

For CC[C@]1(O)Cc2c(O)c3c(c(O)c2[C@@H](O[C@H]2C[C@H](N4CCOCC4)[C@H](O)[C@H](C)O2)C1)C(=O)c1c(O)cccc1C3=O [M-R20X, 3'-deamino-3'-(4-morpholinyl)-13-deoxocarminomycin], which LD50 (in vivo) is on record?
Its LD50 is 12.3 mg/kg.

And the ED (T/C 130%) (P388 leukemia; iv, i.v., P388 leukemia in CDF1 mice, read-out: Dose for T/C = 130%)?
The ED (T/C 130%) was 2.5 mg/kg/day.
